The values below come from US11976083B2, “Inhibitors of peptidylarginine deiminases” (Gilead Sciences, Inc., priority 2020, dated 2024).

Tested on in one series: not given
Experiment: not given
The conditions noted are these: from COc1cc(C(=O)OC(C)C)cc2nc(-c3cc4ccc([C@@H](C)N)nc4n3CCCCCc3ccccc3C(=O)O)n(C)c12; amide bond; HATU; DCM; 24.6 mM; 25.0 °C; 16.0 h.
The compound `COc1cc(C(=O)OC(C)C)cc2nc(-c3cc4ccc5nc4n3CCCCCc3ccccc3C(=O)N[C@@H]5C)n(C)c12` registered a ring closure, yield of all isomers of 70.9%.

A further series deals with T1, human PAD4 (Homo sapiens, UniProt Q9UM07).
T1 construct: human PAD4 (NM_012387), A2-P663, was PCR amplified; His-SUMO (N, cleaved yes); made in house; host or cells: E. coli BL21(DE3)
T1 sequence (Q9UM07 2-663): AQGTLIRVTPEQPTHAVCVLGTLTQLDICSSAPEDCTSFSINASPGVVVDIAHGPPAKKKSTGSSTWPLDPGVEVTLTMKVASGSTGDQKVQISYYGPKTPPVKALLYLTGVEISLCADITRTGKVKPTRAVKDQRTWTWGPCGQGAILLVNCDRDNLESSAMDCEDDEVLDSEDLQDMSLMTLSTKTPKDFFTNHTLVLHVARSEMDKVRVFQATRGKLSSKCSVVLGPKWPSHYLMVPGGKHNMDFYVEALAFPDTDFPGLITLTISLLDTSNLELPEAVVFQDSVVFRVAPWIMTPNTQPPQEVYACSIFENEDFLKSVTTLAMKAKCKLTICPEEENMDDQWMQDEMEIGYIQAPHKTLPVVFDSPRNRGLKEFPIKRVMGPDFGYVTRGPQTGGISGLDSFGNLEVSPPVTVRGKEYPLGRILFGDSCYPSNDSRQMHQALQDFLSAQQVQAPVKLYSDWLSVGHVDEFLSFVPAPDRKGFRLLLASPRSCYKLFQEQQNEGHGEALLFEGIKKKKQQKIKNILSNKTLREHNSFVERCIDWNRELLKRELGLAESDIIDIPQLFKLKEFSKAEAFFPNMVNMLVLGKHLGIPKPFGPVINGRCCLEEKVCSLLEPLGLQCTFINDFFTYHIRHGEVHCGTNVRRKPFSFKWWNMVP
Nature of the series: In vitro PAD4 BAEE biochemical assay. The settings on record: BAEE substrate 3 mM, 5 nM PAD4, 2 mM calcium chloride; geometric mean of multiple experiments. In outline: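 Assay was run at 25 °C using 3 mM BAEE and 5 nM human PAD4 after a 30 min compound preincubation; ammonia produced over 2 h was quantified by OPA-derived fluorescence. Full inhibition was defined by 50 µM BB-Cl-Amidine, and IC50 came from variable-slope nonlinear regression.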
In the case of `COc1cc(C(=O)N2C[C@H](N)[C@@H]3CC[C@H]2C3)cc2nc(-c3cc4ccc5nc4n3CC(F)(F)CCCCC(C)(C)C(=O)N[C@@H]5C)n(C)c12` [Example 943, (11~{R})-17-[5-[(1~{S},4~{R}, 5~{R})-4-amino-2-azabicyclo [3.2.1]octane-2-carbonyl]-7-methoxy-1-methyl-benzimidazol-2-yl]-3,3-difluoro-8,8,11-trimethyl-1,10,19-triazatricyclo[10.5.2.0^{15,18}] nonadeca-12(19), 13,15(18),16-tetraen-9-one], the 50% inhibitory concentration (IC50) was determined as 0.048 µM.
As for `CC(C)n1c(-c2cc3ccc4nc3n2CCCCCc2nc(Cl)ccc2C(=O)N[C@@H]4C)nc2cc(C(=O)N3C[C@H](N)[C@@H]4CC[C@H]3C4)cc(F)c21` [Example 946, (2~{R})-17-[5-[(1~{S},4~ {R},5~{R})-4-amino-2-azabicyclo [3.2.1]octane-2-carbonyl]-7-fluoro-1-isopropyl-benzimidazol-2-yl]-8-chloro-2-methyl-3,9,16,22-tetrazatetracyclo[14.5.2.0^ {5,10}.0^{19,23}]tricosa-1(22),5(10),6,8,17,19(23),20-heptaen-4-one], the IC50 was 0.069 µM.
As to `C[C@H]1NC(=O)c2ccc(Cl)nc2CCCCCn2c(-c3nc4cc(C(=O)N5C[C@H](N)[C@@H]6CC[C@H]5C6)cc(F)c4n3CC(C)(C)C)cc3ccc1nc32` [Example 947, (2~{R})-17-[5-[(1~{S},4~ {R},5~{R})-4-amino-2-azabicyclo[3.2.1]octane-2-carbonyl]-1-(2,2-dimethylpropyl)-7-fluoro-benzimidazol-2-yl]-8-chloro-2-methyl-3,9,16,22-tetrazatetracyclo [14.5.2.0^{5,10}.0^{19,23}] tricosa-1(22),5(10),6,8,17, 19(23),20-heptaen-4-one], the IC50 was found to be 0.092 µM.
Same read-out and setting: then `COc1cc(C(=O)N2C[C@H](N)[C@@H]3CC[C@H]2C3)cc2nc(-c3cc4ccc5nc4n3CCCCCC[C@@](C)(F)C(=O)N[C@@H]5C)n(C)c12` [Example 948, (8~{R},11~{R})-17-[5-[(1~{S},4~{R},5~{R})-4-amino-2-azabicyclo[3.2.1]octane-2-carbonyl]-7-methoxy-1-methyl-benzimidazol-2-yl]-8-fluoro-8,11-dimethyl-1,10,19-triazatricyclo[10.5.2.0^ {15,18}]nonadeca-12(19), 13,15(18),16-tetraen-9-one], with 0.028 µM; and `COc1cc(C(=O)N2C[C@H](N)[C@@H]3CC[C@H]2C3)cc2nc(-c3cc4ccc5nc4n3CCCCCC[C@](C)(F)C(=O)N[C@@H]5C)n(C)c12` [Example 949, (8~{S},11~{R})-17-[5-[(1~{S},4~{R},5~{R})-4-amino-2-azabicyclo[3.2.1]octane-2-carbonyl]-7-methoxy-1-methyl-benzimidazol-2-yl]-8-fluoro-8,11-dimethyl-1,10,19-triazatricyclo [10.5.2.0^{15,18}]nonadeca-12(19),13,15(18),16-tetraen-9-one], with 0.031 µM; and `COc1cc(C(=O)N2C[C@H](N)[C@@H]3CC[C@H]2C3)cc2nc(-c3cc4ccc5nc4n3CCCc3ccc4cccc(c4c3)C(=O)N[C@@H]5C)n(C)c12` [Example 950, (4~{R})-10-[5-[(1~{S},4~{R},5~ {R})-4-amino-2-azabicyclo [3.2.1]octane-2-carbonyl]-7-methoxy-1-methyl-benzimidazol-2-yl]-4-methyl-3,6,11-triazapentacyclo [13.6.2.2^{5,8}.0^{7,11}.0^ {18,22}]pentacosa-1(22),5,7,9, 15(23),16,18,20,24-nonaen-2-one], with 0.038 µM.
Take `[2H]C1([2H])CCCn2c(-c3nc4cc(C(=O)N5C[C@H](N)[C@@H]6CC[C@H]5C6)cc(F)c4n3C3CC3)cc3ccc(nc32)[C@@H](C)NC(=O)c2ccc(Cl)nc2C1([2H])[2H]` [Example 951, (2~{R})-17-[5-[(1~{S},4~{R}, 5~{R})-4-amino-2-azabicyclo [3.2.1]octane-2-carbonyl]-1-cyclopropyl-7-fluoro-benzimidazol-2-yl]-8-chloro-11,11,12,12-tetradeuterio-2-methyl-3,9,16,22-tetrazatetracyclo[14.5.2.0^ {5,10).0^{19,23}]tricosa-1(22),5(10),6,8,17,19(23),20-heptaen-4-one]: the IC50 was determined as 0.024 µM.
Turning to `C[C@H]1NC(=O)[C@@H]2C[C@@]2(F)CCCCCn2c(-c3nc4cc(C(=O)N5C[C@H](N)[C@@H]6CC[C@H]5C6)cc(F)c4n3C3C[C@H]3F)cc3ccc1nc32` (stereo partly shown) [Example 952, (2~{R},5~{S},7~{S})-14-[5-[(1~{S},4~{R},5~{R})-4-amino-2-azabicyclo[3.2.1]octane-2-carbonyl]-7-fluoro-1-[(1~{R},2~{R})-2-fluorocyclopropyl]benzimidazol-2-yl]-7-fluoro-2-methyl-3,13,19-triazatetracyclo [11.5.2.0^{5,7}.0^{16,20}] icosa-1(19),14,16(20),17-tetraen-4-one], the IC50 turned out to be 0.021 µM.
Regarding `COc1cc(C(=O)N2C[C@H](N)[C@@H]3CC[C@H]2C3)cc2nc(-c3cc4ccc5nc4n3CCCCCc3ccc(F)cc3C(=O)N[C@@H]5C)n(C3CC3)c12` [Example 953, (2~{R})-17-[5-[(1~{S},4~{R}, 5~{R})-4-amino-2-azabicyclo [3.2.1]octane-2-carbonyl]-1-cyclopropyl-7-methoxy-benzimidazol-2-yl]-7-fluoro-2-methyl-3,16,22-triazatetracyclo[14.5.2.0^ {5,10}.0^{19,23}]tricosa-1(22),5(10),6,8,17,19(23), 20-heptaen-4-one], the IC50 worked out at 0.068 µM.
For the compound `COc1cc(C(=O)N2C[C@H](N)[C@@H]3CC[C@H]2C3)cc2nc(-c3cc4ccc5nc4n3CCCCCc3ccc(Cl)nc3C(=O)N[C@@H]5C)n(C)c12` [Example 954, (2~{R})-17-[5-[(1~{S},4~{R}, 5~{R})-4-amino-2-azabicyclo [3.2.1]octane-2-carbonyl]-7-methoxy-1-methyl-benzimidazol-2-yl]-7-chloro-2-methyl-3,6,16,22-tetrazatetracyclo[14.5.2.0^ {5,10}.0^{19,23}]tricosa-1(21),5(10),6,8,17,19,22-heptaen-4-one], the IC50 was 0.032 µM.
On to `COc1cc(C(=O)N2C[C@H](N)[C@@H]3CC[C@H]2C3)cc2nc(-c3cc4ccc5nc4n3CCCC[C@]3(F)C[C@H]3C(=O)N3CCC[C@H]53)n(C)c12` [Example 955, (2~{R},8~{S},10~{S})-16-[5-[(1~{S},4~{R},5~{R})-4-amino-2-azabicyclo[3.2.1]octane-2-carbonyl]-7-methoxy-1-methyl-benzimidazol-2-yl]-10-fluoro-6,15,21-triazapentacyclo [13.5.2.0^{2,6}.0^{8,10}.0^ {18,22}]docosa-1(21),16, 18(22),19-tetraen-7-one], for which the IC50 is 0.081 µM.
Regarding “(2~{R})-17-[5-[(1~{S),4~{R}, 5~{R})-4-amino-2-azabicyclo [3.2.1]octane-2-carbonyl]-1- cyclopropyl-benzimidazol-2- yl]-8-chloro-2-methyl-3,9,16,22- tetrazatetracyclo[14.5.2.0^ {5,10}.0^{19,23}]tricosa- 1(22),5(10),6,8,17,19(23),20- heptaen-4-one [Example 926]”, the IC50 stood at 0.023 µM.
Consider “(2~{R})-17-[5-[(1~{S},4~{R}, 5~{R})-4-amino-2-azabicyclo [3.2.1]octane-2-carbonyl]- 7-(difluoromethoxy)-1-methyl- benzimidazol-2-yl]-8-chloro- 2-methyl-3,9,16,22- tetrazatetracyclo[14.5.2.0^ {5,10).0^{19,23}]tricosa- 1(22),5(10),6,8,17,19(23),20- heptaen-4-one [Example 762]”, for which the IC50 came to 0.026 µM.
Take “(2~{R})-17-[5-[(1~{S}, 4~{R},5~{R})-4-amino-2- azabicyclo[3.2.1]octane-2- carbonyl]-1-cyclopropyl- 7-fluoro-benzimidazol-2-yl]- 6-(difluoromethyl)-2- methyl-3,7,16,22- tetrazatetracyclo[14.5.2.0^ {5,10}.0^{19,23}]tricosa- 1(22),5(10),6,8,17,19(23),20- heptaen-4-one [Example 718]”: the IC50 is 0.018 µM.

The test system of another series is collagen induced arthritis (CIA).
Experiment: not given
The conditions noted are these: prophylactic treatment, murine CIA model; cited from earlier work.
For `CCn1c(-c2nc3cc(C(=O)N4CCC[C@@H](N)C4)cc(OC)c3n2C)cc2cccnc21.Cl` [GSK199], the “clinical and histological scores” value is “improvement of clinical and histological scores”.
As for `NC(=O)[C@H](CCCN=C(N)CCl)NC(=O)c1ccccc1` [chloroamidine], the “clinical and histological scores” value is “improvement of clinical and histological scores”.

A further series relates to models of chronic and acute inflammatory diseases.
Experiment: not given
The conditions noted are these: MRL/lpr mouse lupus, hemorrhagic shock in rats, mouse CLP sepsis, mouse DSS-colitis, ApoE-/- arteriosclerosis, diabetic wound healing models; cited from earlier work.
Turning to `NC(=O)[C@H](CCCN=C(N)CCl)NC(=O)c1ccccc1` [chloroamidine], the “clinical, inflammatory, histopathological and mechanical end points” value is “reduction of clinical, inflammatory, histopathological and mechanical end points”.
Turning to YW3-56, the “clinical, inflammatory, histopathological and mechanical end points” value was “reduction of clinical, inflammatory, histopathological and mechanical end points”.

A word on the IC50: it is the midpoint of a concentration-inhibition curve.
